In patent US4115385A, “Antibacterial 3-(5-tetrazolyl) penam compounds” (Pfizer Inc., priority 1977, dated 1978):
Converted amounts (≈) assume the structure as drawn.

What follows are molecules tested on Streptococcus pyogenes (assay: In vitro minimum inhibitory concentration (MIC) vs. Strep. pyogenes). Conditions: Streptococcus pyogenes, read-out: MIC vs. Strep. pyogenes.
Type: cell-based
Procedure: The antibacterial penam compounds of the instant invention show activity against a wide variety of gram-positive and gram-negative bacteria. […] The broth is inoculated with the bacterial culture, and with the test antibiotic, and then it is incubated overnight. On the next day, the test is read visually. The minimum inhibitory concentration (MIC) is the lowest concentration of antibiotic which prevents turbidity, i.e., which prevents growth of the microorganism. In vitro activities of several of the penam compounds of the invention are presented later in this specification.
In Table II, the minimum inhibitory concentrations (MIC's) of compounds of formula I, wherein R^2 is hydrogen, against a strain of Streptococcus pyogenes, are reported; and in Table III, minimum inhibitory concentrations of compounds of formula I, wherein R^2 is hydrogen, against a strain of Staphylococcus aureus, are presented. Because of the tautomeric nature of such tetrazole derivatives, referred to hereinbefore,each of the preparations tested also contains some of the corresponding compound of formula II, wherein R^3 is hydrogen.
`CC1(C)S[C@@H]2[C@H](NC(=O)Cc3cccc(OCCN)c3)C(=O)N2[C@H]1c1nn[nH]n1` [2-(3-[2-aminoethoxy]phenyl)acetyl, 6-(2-[3-(2-Aminoethoxy)phenyl]acetamido)-2,2-dimethyl-3-(5-tetrazolyl)penam] showed an MIC of less than 0.1 µg/mL. `CC1(C)S[C@@H]2[C@H](NC(=O)CNC(=O)NC(=N)c3ccccc3)C(=O)N2[C@H]1c1nnn[nH]1` [2-(3-[benzimidoyl]ureido)-acetyl] was tested, and the MIC was less than 0.1 µg/mL. Work on `CC(=O)NC(=O)N[C@@H](C(=O)N[C@@H]1C(=O)N2[C@@H]1SC(C)(C)[C@@H]2c1nn[nH]n1)c1ccccc1` [2-(3-acetylureido)-2-phenylacetyl] yielded an MIC of less than 0.1 µg/mL. With `CC1(C)S[C@@H]2[C@H](NC(=O)Cc3sccc3CN)C(=O)N2[C@H]1c1nnn[nH]1` [2-(3-aminomethyl-2-thienyl)-acetyl, 6-(2-[3-Aminomethyl-2-thienyl]acetamido)-2,2-dimethyl-3-(5-tetrazolyl)penam] the MIC was no more than 0.1 µg/mL. In the case of `CC1(C)S[C@@H]2[C@H](NC(=O)Cc3sccc3CN=[N+]=[N-])C(=O)N2[C@H]1c1nnn[nH]1` [2-(3-azidomethyl-2-thienyl-acetyl, 6-(2-[3-Azidomethyl-2-thienyl]acetamido)-2,2-dimethyl-3-(5-tetrazolyl)penam], the MIC is reported as no more than 0.1 µg/mL. Work on `CC1(C)S[C@@H]2[C@H](NC(=O)[C@H](NC(=O)NC(=O)c3ccccc3)c3ccccc3)C(=O)N2[C@H]1c1nn[nH]n1` [2-(3-benzoylureido)-2-phenylacetyl] yielded an MIC of less than 0.1 µg/mL. `CCCC(=O)NC(=O)N[C@@H](C(=O)N[C@@H]1C(=O)N2[C@@H]1SC(C)(C)[C@@H]2c1nn[nH]n1)c1ccccc1` [2-(3-butyrylureido)-2-phenylacetyl] gave an MIC of less than 0.1 µg/mL. With `CCC(=O)NC(=O)N[C@@H](C(=O)N[C@@H]1C(=O)N2[C@@H]1SC(C)(C)[C@@H]2c1nn[nH]n1)c1ccccc1` [2-(3-propionylureido)-2-phenylacetyl] the MIC was less than 0.1 µg/mL. For `CC1(C)S[C@@H]2[C@H](NC(=O)Cc3ccc(OCCN)cc3)C(=O)N2[C@H]1c1nn[nH]n1` [2-(4-[2-aminoethoxy]phenyl)acetyl, 6-(2-[4-(2-Aminoethoxy)phenyl]acetamido)-2,2-dimethyl-3-(5-tetrazolyl)penam], the MIC was less than 0.1 µg/mL. With `CC1(C)S[C@@H]2[C@H](NC(=O)Cc3ccc(OCCN=[N+]=[N-])cc3)C(=O)N2[C@H]1c1nn[nH]n1` [2-(4-[2-azidoethoxy]phenyl)acetyl, 6-(2-[4-(2-Azidoethoxy)phenyl]acetamido)-2,2-dimethyl-3-(5-tetrazolyl)penam] the MIC was less than 0.1 µg/mL. In the case of `CC1(C)S[C@@H]2[C@H](NC(=O)Cc3ccc(CN)cc3)C(=O)N2[C@H]1c1nnn[nH]1` [2-(4-aminomethylphenyl)acetyl, 6-(2-[4-Aminomethylphenyl]acetamido)-2,2-dimethyl-3-(5-tetrazolyl)penam], the MIC is reported as less than 0.1 µg/mL. With `CC1(C)S[C@@H]2[C@H](NC(=O)CNC(=N)c3ccncc3)C(=O)N2[C@H]1c1nnn[nH]1` [2-(4-pyridinecarboxamidino)acetyl] the MIC was less than 0.1 µg/mL. `CC1(C)S[C@@H]2[C@H](NC(=O)CSc3ccncc3)C(=O)N2[C@H]1c1nnn[nH]1` [2-(4-pyridylthio)acetyl, 6-(2-[4-Pyridylthio]acetamido)-2,2-dimethyl-3-(5-tetrazolyl)penam] was tested, and the MIC was less than 0.1 µg/mL. In the case of `CC1(C)S[C@@H]2[C@H](NC(=O)Cc3ccc(CN)s3)C(=O)N2[C@H]1c1nnn[nH]1` [2-(5-aminomethyl-2-thienyl)-acetyl, 6-(2-[5-Aminomethyl-2-thienyl]acetamido)-2,2-dimethyl-3-(5-tetrazolyl)penam], the MIC is reported as no more than 0.1 µg/mL. In the case of `CC1(C)S[C@@H]2[C@H](NC(=O)Cc3ccc(CN=[N+]=[N-])s3)C(=O)N2[C@H]1c1nnn[nH]1` [2-(5-azidomethyl-2-thienyl)-acetyl, 6-(2-[5-Azidomethyl-2-thienyl]acetamido)-2,2-dimethyl-3-(5-tetrazolyl)penam], the MIC is reported as no more than 0.1 µg/mL. In the case of `CC1(C)S[C@@H]2[C@H](NC(=O)C(C(=O)Oc3ccc4c(c3)CCC4)c3ccccc3)C(=O)N2[C@H]1c1nnn[nH]1` (some centres unmarked) [2-(5-indanyloxycarbonyl)-2-phenylacetyl, 6-(2-[5-Indanyloxycarbonyl]-2-phenylacetamido)-2,2-dimethyl-3-(5-tetrazolyl)penam], the MIC is reported as less than 0.1 µg/mL. `CC(=N)NCC(=O)N[C@@H]1C(=O)N2[C@@H]1SC(C)(C)[C@@H]2c1nnn[nH]1` [2-(acetamidino)acetyl] was tested, and the MIC was less than 0.1 µg/mL. `CC1(C)S[C@@H]2[C@H](NC(=O)CNC(=O)c3ccccc3)C(=O)N2[C@H]1c1nn[nH]n1` [2-(benzamido)acetyl, 6-(2-[Benzamido]acetamido)-2,2-dimethyl-3-(5-tetrazolyl)penam] showed an MIC of 0.1 µg/mL (≈ 0.249 µM). `CCSCC(=O)N[C@@H]1C(=O)N2[C@@H]1SC(C)(C)[C@@H]2c1nnn[nH]1` [2-(ethylthio)acetyl] gave an MIC of less than 0.1 µg/mL. For `CC1(C)S[C@@H]2[C@H](NC(=O)Cc3ccccc3OCCN)C(=O)N2[C@H]1c1nn[nH]n1` [2-(o-[2-aminoethoxy]phenyl)acetyl, 6-(2-[2-(2-Aminoethoxy)phenyl]acetamido)-2,2-dimethyl-3-(5-tetrazolyl)penam], the MIC was less than 0.1 µg/mL. Molecule `CC1(C)S[C@@H]2[C@H](NC(=O)Cc3ccccc3CN)C(=O)N2[C@H]1c1nnn[nH]1` [2-(o-[aminomethyl]phenyl)acetyl, 6-[2-[o-(aminomethyl)phenyl]acetamido]-2,2-dimethyl-3-(5-tetrazolyl)penam] has an MIC of less than 0.1 µg/mL. Molecule `CC1(C)S[C@@H]2[C@H](NC(=O)C(C(=O)O)c3cccs3)C(=O)N2[C@H]1c1nnn[nH]1` (some centres unmarked) [2-carboxy-2-(2-thienyl)acetyl, 6-(2-Carboxy-2-[2-thienyl]acetamido)-2,2-dimethyl-3-(5-tetrazolyl)penam] has an MIC of 0.1 µg/mL (≈ 0.245 µM). For `CC1(C)S[C@@H]2[C@H](NC(=O)C(C(=O)O)c3ccsc3)C(=O)N2[C@H]1c1nnn[nH]1` (some centres unmarked) [2-carboxy-2-(3-thienyl)acetyl, 6-(2-Carboxy-2-[3-thienyl]acetamido)-2,2-dimethyl-3-(5-tetrazolyl)penam], the MIC was 0.1 µg/mL (≈ 0.245 µM). Molecule `CCOc1ccc2ccccc2c1C(=O)N[C@@H]1C(=O)N2[C@@H]1SC(C)(C)[C@@H]2c1nnn[nH]1` [2-ethoxy-1-naphthoyl, 6-(2-Ethoxy-1-naphthamido)-2,2-dimethyl-3-(5-tetrazolyl)penam] has an MIC of less than 0.1 µg/mL. Work on `CCNC(=O)N[C@@H]1C(=O)N2[C@@H]1SC(C)(C)[C@@H]2c1nnn[nH]1` [3-ethylcarbamoyl, 6-(3-ethylureido)-2,2-dimethyl-3-(5-tetrazolyl)penam] yielded an MIC of less than 0.1 µg/mL. Molecule `CC1(C)S[C@@H]2[C@H](NC(=O)Nc3ccccc3)C(=O)N2[C@H]1c1nnn[nH]1` [3-phenylcarbamoyl, 6-(3-Phenylureido)-2,2-dimethyl-3-(5-tetrazolyl)penam] has an MIC of less than 0.1 µg/mL. With `CC1(C)S[C@@H]2[C@H](NC(=O)[C@H](NC(=O)CNC(=O)c3ccccc3)c3ccccc3)C(=O)N2[C@H]1c1nn[nH]n1` [6-(2-D-[2-Benzamidoacetamido]-2-phenylacetamido)-2,2-dimethyl-3-(5-tetrazolyl)penam] the MIC was less than 0.1 µg/mL.

Same assay, conditions: Streptococcus pyogenes; Table II; two-fold serial dilution, Brain-Heart Infusion broth, overnight; read-out: MIC vs. Strep. pyogenes
Molecule `CC1(C)S[C@@H]2[C@H](NC(=O)[C@H](NC(=O)NC(=O)CCl)c3ccccc3)C(=O)N2[C@H]1c1nn[nH]n1` [2-(3-[chloroacetyl]ureido-2-phenylacetyl] has an MIC of 0.2 µg/mL (≈ 0.406 µM). For `CC1(C)S[C@@H]2[C@H](NC(=O)[C@H](NC(=S)NC(=O)c3ccccc3)c3ccccc3)C(=O)N2[C@H]1c1nn[nH]n1` [2-(3-benzoylthioureido)-2-phenylacetyl], the MIC was 1.56 µg/mL (≈ 2.91 µM). `CC1(C)S[C@@H]2[C@H](NC(=O)CSCc3ccccc3)C(=O)N2[C@H]1c1nnn[nH]1` [2-(benzylthio)acetyl] showed an MIC of 0.2 µg/mL (≈ 0.494 µM). In the case of `CCOC(=O)CC(=O)N[C@@H]1C(=O)N2[C@@H]1SC(C)(C)[C@@H]2c1nnn[nH]1` [2-(ethoxycarbonyl)acetyl], the MIC is reported as 0.39 µg/mL (≈ 1.1 µM). Molecule `CC1(C)S[C@@H]2[C@H](NC(=O)CSc3ccccc3)C(=O)N2[C@H]1c1nnn[nH]1` [2-(phenylthio)acetyl, 6-(2-[phenylthio]acetamido)-2,2-dimethyl-3-(5-tetrazolyl)penam] has an MIC of 0.78 µg/mL (≈ 2 µM). With `CC1(C)S[C@@H]2[C@H](NC(=O)C(N)c3ccc(N)cc3)C(=O)N2[C@H]1c1nnn[nH]1` (some centres unmarked) [2-amino-2-(4-aminophenyl)acetyl] the MIC was 0.039 µg/mL (≈ 0.1 µM). In the case of `CC1(C)S[C@@H]2[C@H](NC(=O)C(C(=O)O)c3ccccc3)C(=O)N2[C@H]1c1nnn[nH]1` (some centres unmarked) [2-carboxy-2-phenylacetyl, 6-(2-Carboxy-2-phenylacetamido)-2,2-dimethyl-3-(5-tetrazolyl)penam], the MIC is reported as 0.002 µg/mL (≈ 0.00497 µM). With `CC1(C)S[C@@H]2[C@H](NC(=O)C(c3ccccc3)S(=O)(=O)O)C(=O)N2[C@H]1c1nnn[nH]1` (some centres unmarked) [2-sulfo-2-phenylacetyl, 6-(2-Sulfo-2-phenylacetamido)-2,2-dimethyl-3-(5-tetrazolyl)penam] the MIC was 200 µg/mL (≈ 456 µM). For `CC1(C)S[C@@H]2[C@H](NC(=O)/C=C\C(N)=O)C(=O)N2[C@H]1c1nnn[nH]1` [3-(carbamoyl)acryloyl, 6-(3-[Carbamoyl]acrylamido)-2,2-dimethyl-3-(5-tetrazolyl)penam], the MIC was less than 0.1 µg/mL. `C/C(CN)=C(\C(=O)NC1C(=O)N2C(c3nnn[nH]3)C(C)(C)S[C@H]12)c1ccccc1` (some centres unmarked) [3-aminomethyl-2-phenylisocrotonoyl, 6-(3-Aminomethyl-2-phenylisocrotonamido)-2,2-dimethyl-3-(5-tetrazolyl)penam] gave an MIC of 12.5 µg/mL (≈ 30.2 µM).

Same assay, conditions: Table II; two-fold serial dilution, Brain-Heart Infusion broth, overnight
With `CC1(C)SC2C(NC(=O)[C@@H](c3ccccc3)S(N)(=O)=O)C(=O)N2C1c1nnn[nH]1` (stereo partly drawn) [2-sulfamoyl-2-phenylacetyl, 6-(D-2-Sulfamoyl-2-phenylacetamido)-2,2-dimethyl-3-(5-tetrazolyl)penam] the “MIC vs. Strep. pyogenes” value was less than 0.1 µg/mL.
